Reference: ChEMBL document CHEMBL1201862, “PubChem BioAssay data set” (2004)
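Cultured in 96-well plates, cells were exposed to test compound for 48 hours across five concentrations. GI50 is the concentration that inhibits growth by half.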 Calls of active or inactive are those of the source. Rule as the data show it: active = GI50 up to about 1.1 µM and inactive = higher.

How the values were obtained:
Assay in all cases: NCI anticancer screen, dose series, 48 h
SN12C = tested on: SN12C
NCI-H460 = tested on: NCI-H460
HL-60 = tested on: HL-60
MCF7 = tested on: MCF7
SK-MEL-28 = tested on: SK-MEL-28
HCT-116 = tested on: HCT-116
T47D = tested on: T47D
HCC 2998 = tested on: HCC 2998
MOLT-4 = tested on: MOLT-4
HCT-15 = tested on: HCT-15
MDA-MB-231 = tested on: MDA-MB-231
SF-539 = tested on: SF-539
HT-29 = tested on: HT-29
TK-10 = tested on: TK-10
SK-MEL-2 = tested on: SK-MEL-2
MDA-MB-435 = tested on: MDA-MB-435
OVCAR-4 = tested on: OVCAR-4
SNB-19 = tested on: SNB-19
PC-3 = tested on: PC-3
ACHN = tested on: ACHN
EKVX = tested on: EKVX
BT-549 = tested on: BT-549
A549 = tested on: A549
SF-295 = tested on: SF-295
SK-OV-3 = tested on: SK-OV-3
DU-145 = tested on: DU-145
OVCAR-3 = tested on: OVCAR-3
OVCAR-5 = tested on: OVCAR-5
KM12 = tested on: KM12
786-0 = tested on: 786-0
OVCAR-8 = tested on: OVCAR-8
UO-31 = tested on: UO-31
IGROV-1 = tested on: IGROV-1
NCI-H226 = tested on: NCI-H226
LOX IMVI = tested on: LOX IMVI
SK-MEL-5 = tested on: SK-MEL-5
SW-620 = tested on: SW-620
CAKI-1 = tested on: CAKI-1
NCI/ADR-RES = tested on: NCI/ADR-RES
SNB-75 = tested on: SNB-75
U-251 = tested on: U-251
HOP-62 = tested on: HOP-62
NCI-H23 = tested on: NCI-H23
UACC-257 = tested on: UACC-257
M14 = tested on: M14
COLO 205 = tested on: COLO 205
HOP-92 = tested on: HOP-92
SR = tested on: SR
A498 = tested on: A498
K562 = tested on: K562
SF-268 = tested on: SF-268
RXF 393 = tested on: RXF 393
UACC-62 = tested on: UACC-62
Malme-3M = tested on: Malme-3M
CCRF-CEM = tested on: CCRF-CEM
NCI-H522 = tested on: NCI-H522
Hs-578T = tested on: Hs-578T

Cc1ccc(/C=C2/NC(=S)SC2=O)cc1
GI50 (SN12C): 31 µM (inactive) | GI50 (NCI-H460): 22.4 µM (inactive) | GI50 (HL-60): 27.4 µM (inactive) | GI50 (MCF7): 39.6 µM (inactive) | GI50 (SK-MEL-28): > 100 µM (inactive) | GI50 (HCT-116): 30.5 µM (inactive) | GI50 (T47D): 31.3 µM (inactive) | GI50 (HCC 2998): 31.2 µM (inactive) | GI50 (MOLT-4): 33.8 µM (inactive) | GI50 (HCT-15): 24.2 µM | GI50 (MDA-MB-231): 24.4 µM (inactive) | GI50 (SF-539): 30 µM (inactive) | GI50 (HT-29): 28.6 µM (inactive) | GI50 (TK-10): 18.1 µM (inactive) | GI50 (SK-MEL-2): 36.9 µM (inactive) | GI50 (MDA-MB-435): 36.5 µM (inactive) | GI50 (OVCAR-4): 28.9 µM (inactive) | GI50 (SNB-19): 29.5 µM (inactive) | GI50 (PC-3): 38.4 µM (inactive) | GI50 (ACHN): 33 µM (inactive) | GI50 (EKVX): 28.4 µM (inactive) | GI50 (BT-549): 22.6 µM (inactive) | GI50 (A549): 36.7 µM (inactive) | GI50 (SF-295): 27.6 µM (inactive) | GI50 (SK-OV-3): 88.1 µM (inactive) | GI50 (DU-145): 58.5 µM (inactive) | GI50 (OVCAR-3): 43.7 µM (inactive) | GI50 (OVCAR-5): 40.8 µM (inactive) | GI50 (KM12): 33.3 µM (inactive) | GI50 (786-0): 34.6 µM (inactive) | GI50 (OVCAR-8): 31 µM (inactive) | GI50 (UO-31): 24.5 µM (inactive) | GI50 (IGROV-1): 37.7 µM (inactive) | GI50 (NCI-H226): 25.7 µM (inactive) | GI50 (LOX IMVI): 32.8 µM (inactive) | GI50 (SK-MEL-5): 32.1 µM (inactive) | GI50 (SW-620): 54.2 µM (inactive) | GI50 (CAKI-1): 19.6 µM (inactive) | GI50 (NCI/ADR-RES): 22.5 µM (inactive) | GI50 (SNB-75): 20.7 µM (inactive) | GI50 (U-251): 43.9 µM (inactive) | GI50 (HOP-62): 51.6 µM (inactive) | GI50 (NCI-H23): 20.7 µM (inactive) | GI50 (UACC-257): 31.4 µM (inactive) | GI50 (M14): 33 µM (inactive) | GI50 (COLO 205): 35.7 µM (inactive) | GI50 (HOP-92): 43.8 µM (inactive)

Cc1cc(C)cc(Nc2nnc3n2S(=O)(=O)c2cc(C#N)c(Cl)cc2S3)c1
GI50 (SN12C): 2.59 µM (inactive) | GI50 (SR): 0.507 µM (active) | GI50 (NCI-H460): 3.14 µM (inactive) | GI50 (HL-60): 1.68 µM (inactive) | GI50 (MCF7): 1.87 µM (inactive) | GI50 (A498): 16.3 µM (inactive) | GI50 (SK-MEL-28): 3.21 µM (inactive) | GI50 (HCT-116): 2.17 µM (inactive) | GI50 (T47D): 3.26 µM (inactive) | GI50 (K562): 1.47 µM (inactive) | GI50 (SF-268): 2.2 µM (inactive) | GI50 (RXF 393): 1.59 µM (inactive) | GI50 (MOLT-4): 1.11 µM (active) | GI50 (HCT-15): 2.52 µM | GI50 (MDA-MB-231): 3.13 µM (inactive) | GI50 (SF-539): 1.89 µM (inactive) | GI50 (HT-29): 1.83 µM (inactive) | GI50 (SK-MEL-2): 7.53 µM (inactive) | GI50 (MDA-MB-435): 3.03 µM (inactive) | GI50 (OVCAR-4): 7.98 µM (inactive) | GI50 (SNB-19): 6.78 µM (inactive) | GI50 (ACHN): 3.08 µM (inactive) | GI50 (EKVX): 8.67 µM (inactive) | GI50 (BT-549): 2.16 µM (inactive) | GI50 (UACC-62): 3.97 µM (inactive) | GI50 (A549): 16.2 µM (inactive) | GI50 (SF-295): 2.84 µM (inactive) | GI50 (SK-OV-3): 6.56 µM (inactive) | GI50 (DU-145): 3.14 µM (inactive) | GI50 (OVCAR-3): 1.57 µM (inactive) | GI50 (Malme-3M): 1.13 µM (inactive) | GI50 (OVCAR-5): 2.83 µM (inactive) | GI50 (KM12): 1.89 µM (inactive) | GI50 (786-0): 2.22 µM (inactive) | GI50 (CCRF-CEM): 1.07 µM (active) | GI50 (NCI-H522): 1.87 µM (inactive) | GI50 (UO-31): 4.86 µM (inactive) | GI50 (IGROV-1): 0.505 µM (active) | GI50 (Hs-578T): 2.68 µM (inactive) | GI50 (NCI-H226): 10.6 µM (inactive) | GI50 (LOX IMVI): 2.89 µM (inactive) | GI50 (SK-MEL-5): 7.55 µM (inactive) | GI50 (SW-620): 2.39 µM (inactive) | GI50 (CAKI-1): 3.24 µM (inactive) | GI50 (NCI/ADR-RES): 2.44 µM (inactive) | GI50 (SNB-75): 2.32 µM (inactive) | GI50 (U-251): 1.96 µM (inactive) | GI50 (HOP-62): 2.77 µM (inactive) | GI50 (NCI-H23): 1.77 µM (inactive) | GI50 (UACC-257): 1.44 µM (inactive) | GI50 (M14): 5.57 µM (inactive) | GI50 (COLO 205): 10.9 µM (inactive)
